Key:
PPARγ2 S273A mutant = target: T1, PPARγ2 S273A mutant (Homo sapiens, UniProt P37231, S273A); assay: GST-pull down assay with PPARγ2 S112A and S273A mutants (HEK-293T); type: binding; conditions: FIG. 4A, 4B
T1 construct: expressed in transfected cells; host or cells: HEK-293T
T1 sequence (P37231 1-505 S273A): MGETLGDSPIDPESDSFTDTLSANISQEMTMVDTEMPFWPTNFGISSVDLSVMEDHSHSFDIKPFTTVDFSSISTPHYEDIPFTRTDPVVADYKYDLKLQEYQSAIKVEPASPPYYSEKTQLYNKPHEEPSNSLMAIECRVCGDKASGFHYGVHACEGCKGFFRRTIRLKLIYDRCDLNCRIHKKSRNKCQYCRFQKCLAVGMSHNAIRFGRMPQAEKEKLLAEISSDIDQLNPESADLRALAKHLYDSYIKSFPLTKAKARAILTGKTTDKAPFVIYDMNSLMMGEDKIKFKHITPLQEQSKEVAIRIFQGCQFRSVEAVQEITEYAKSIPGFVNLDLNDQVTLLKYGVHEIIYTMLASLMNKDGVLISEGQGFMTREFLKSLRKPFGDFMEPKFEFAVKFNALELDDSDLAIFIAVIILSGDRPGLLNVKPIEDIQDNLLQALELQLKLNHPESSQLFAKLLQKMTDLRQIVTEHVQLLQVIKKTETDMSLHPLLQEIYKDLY
Description: 14-3-3 proteins are known to bind to phosphorylated residues of a target protein. Phosphorylated residues associated with the activity of PPARγ2 are known to be serine 112 and serine 273. Thus, PPARγ2 mutants (PPARγ2 S112A and S273A) with non-phosphorylated serine 112 and serine 273 residues were produced and binding thereof with 14-3-3 proteins was verified through GST-pull down assay.
HEK-293T cells were seeded in a 100 mm plate at a density of 2×10^6 cells per each well, and then transfected with Flag-PPARγ2 (WT) DNA (4 μg), Flag-PPARγ2 (S112A) DNA (4 μg), Flag-PPARγ2(S273A) DNA (4 μg), and mGST-14-3-3β (4 μg) or mGST-14-3-3γ (4 μg) using an E-fection plus reagent (Lugen). As for Flag-PPARγ2 (S112A) DNA and Flag-PPARγ2 (S273A) DNA, DNA fragments amplified through polymerase chain reaction (PCR) were cloned into a Flag-tagged vector. A ratio of DNA to the E-fection plus reagent was 1:2, and this method was performed according to a manufacturer's manual. The corresponding cells were washed with ice-cold PBS and lysed using 500 μl/well of a lysis buffer (150 mM NaCl, 1 mM EDTA, 1% Nonidet P-40, 5% glycerol, 25 mM tris-HCl, pH 7.5, protease inhibitor added), and the lysed cells were centrifuged at 10,000×g and 4° C. for 10 minutes to extract proteins. […]

SREBP-1c protein = SREBP-1c protein expression by western blotting, HepG2 cells; type: cell-based; conditions: 14-3-3 overexpression, 200 μM oleic acid 72 hours, FIG. 7D
Description: In addition, HepG2 cells were seeded in a 6-well plate at a density of 5×10^5 cells per each well, and then transfected with HA-14-3-3β DNA (1 μg) or HA-14-3-3γ DNA (1 μg) using an E-fection plus reagent (Lugen). A ratio of DNA to the E-fection plus reagent was 1:2, and this method was performed according to a manufacturer's manual. After transfection, the cells were treated with 200 μM of oleic acid (OA) for 72 hours, washed with ice-cold PBS, and lysed with 80 μl/well of a lysis buffer (150 mM NaCl, 1 mM EDTA, 1% Nonidet P-40, 5% glycerol, 25 mM tris-HCl, pH 7.5, protease inhibitor added), the lysed cells were centrifuged at 10,000×g and 4° C. for 10 minutes to extract proteins, and 30 μg of the proteins was separated on a 10% SDS-PAGE gel and identified using each of the antibodies (HA, SREBP-1c: Santa Cruz) by western blotting, and all antibodies were used in a ratio of 1:3000. To verify whether such regulation of mRNA expression of the target genes of PPARγ2 is the same as in the expression of a protein thereof, an expression amount of the SREBP-1c protein was checked by western blotting. As a result of the experiment, it was confirmed that the expression of the SREBP-1c protein was increased by the overexpression of 14-3-3β and reduced by the overexpression of 14-3-3γ (see FIG. 7D).

[1] = test system: primary mouse hepatocytes; assay: Triglyceride colorimetric assay, primary mouse hepatocytes; type: cell-based; conditions: primary mouse hepatocytes; 14-3-3 overexpression; 200 μM oleic acid 72 hours; FIG. 10A
Description: A triglyceride (neutral fat) is a type of fatty acid and is used as an index of a fat content. A biochemical lipid test was carried out by measuring an amount of triglycerides. HepG2 cells and primary mouse hepatocytes were separately seeded in a 6-well plate at a density of 4×10^5 cells per each well, and then transfected with GFP-14-3-3β DNA (1 μg) or GFP-14-3-3γ DNA (1 μg) and si-14-3-3β (10 μM, Santa Cruz) or si-14-3-3γ (10 μM, Santa Cruz) using an E-fection plus reagent (Lugen). A ratio of DNA to the E-fection plus reagent was 1:2, and this method was performed according to a manufacturer's manual. After transfection, the cells were treated with 200 μM of oleic acid (OA) for 72 hours, and the amount of triglycerides was measured using a triglyceride colorimetric assay kit (Cayman Chemical). The corresponding cells were washed with ice-cold PBS and then scraped using a standard diluent assay reagent, the scrapping process was repeated using a sonicator 20 times to lyse the cells, and the lysed cells were reacted with an enzyme buffer solution for 15 minutes, followed by measurement using an ELISA reader (Bio-Rad Laboratories, Inc) at a wavelength of 550 nm.

binding with PPARγ2 S273A mutant (PPARγ2 S273A mutant)	Substance	expression of the SREBP-1c protein (SREBP-1c protein)	triglyceride accumulation [1]
suppressed	14-3-3β: 14-3-3 isoform protein, overexpressed by DNA transfection; regulating factor that increases transcriptional activity of PPARγ2	increased	further increased
suppressed	14-3-3γ: 14-3-3 isoform protein, overexpressed by DNA transfection; regulating factor that decreases transcriptional activity of PPARγ2	reduced	reduced triglyceride accumulation

From patent US20180207294A1, “NON-ALCOHOLIC FATTY LIVER REGULATING FACTOR 14-3-3 PROTEIN” (Korea University Research and Business Foundation, priority 2015, published 2018)
